Assay results from ChEMBL document CHEMBL5523682, “The formyl peptide receptors FPR1 and FPR2 as targets for inflammatory disorders: recent advances in the development of small-molecule agonists” (Eur J Med Chem, 2024).
Each block holds one compound with its values, some of them ahead of it. Where a SMILES comes first, the peptide text is derived from it. The star is where a group is joined. For = O=C*

Assays:
fMet-Leu-Phe receptor [1] = molecular target: T1, fMet-Leu-Phe receptor (Mus musculus, UniProt P33766); test: Binding affinity to mouse FPR1 expressed in CHO cells assessed as dissociation constant; type: cell-based
T1 sequence (P33766 whole entry): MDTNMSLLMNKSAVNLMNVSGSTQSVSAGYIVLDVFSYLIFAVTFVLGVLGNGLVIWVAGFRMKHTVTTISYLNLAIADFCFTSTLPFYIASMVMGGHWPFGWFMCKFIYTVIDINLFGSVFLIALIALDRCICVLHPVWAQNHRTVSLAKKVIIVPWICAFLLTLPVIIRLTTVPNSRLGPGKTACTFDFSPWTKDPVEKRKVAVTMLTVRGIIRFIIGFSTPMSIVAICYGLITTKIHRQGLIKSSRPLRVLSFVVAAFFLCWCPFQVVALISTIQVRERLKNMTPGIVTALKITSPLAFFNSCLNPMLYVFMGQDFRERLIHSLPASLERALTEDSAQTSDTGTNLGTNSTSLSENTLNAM

[2] = molecular target: T2, N-formyl peptide receptor 2 (Homo sapiens, UniProt P25090); test: Binding affinity to human FPR2 expressed in CHO cells assessed as dissociation constant; type: cell-based
T2 sequence (P25090 whole entry): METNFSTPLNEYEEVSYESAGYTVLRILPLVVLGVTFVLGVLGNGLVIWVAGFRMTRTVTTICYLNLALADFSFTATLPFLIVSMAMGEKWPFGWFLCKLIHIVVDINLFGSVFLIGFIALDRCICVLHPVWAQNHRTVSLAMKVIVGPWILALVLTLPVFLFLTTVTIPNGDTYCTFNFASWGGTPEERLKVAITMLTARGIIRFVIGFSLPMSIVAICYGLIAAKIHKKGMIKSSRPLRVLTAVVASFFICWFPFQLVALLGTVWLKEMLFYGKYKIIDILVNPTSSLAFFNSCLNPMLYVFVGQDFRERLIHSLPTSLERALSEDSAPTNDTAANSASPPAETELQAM

fMet-Leu-Phe receptor [3] = molecular target: T3, fMet-Leu-Phe receptor (Homo sapiens, UniProt P21462); test: Agonist activity at FPR1 (unknown origin) transfected in CHO cells by cAMP assay; type: functional, cell-based
T3 sequence (P21462 whole entry): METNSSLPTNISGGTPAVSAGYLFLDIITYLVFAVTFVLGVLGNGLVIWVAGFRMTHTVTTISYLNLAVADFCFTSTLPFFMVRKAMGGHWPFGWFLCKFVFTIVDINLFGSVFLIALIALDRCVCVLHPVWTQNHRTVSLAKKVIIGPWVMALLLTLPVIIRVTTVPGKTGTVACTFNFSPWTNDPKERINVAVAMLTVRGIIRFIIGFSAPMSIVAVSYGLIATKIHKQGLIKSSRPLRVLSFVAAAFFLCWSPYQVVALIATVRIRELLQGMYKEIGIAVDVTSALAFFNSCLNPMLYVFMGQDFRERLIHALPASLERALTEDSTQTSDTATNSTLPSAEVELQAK

[4] = molecular target: T2, N-formyl peptide receptor 2; test: Agonist activity at FPR2 (unknown origin) transfected in CHO cells by cAMP assay; type: functional, cell-based
[5] = Permeability of compound in PBS buffer at pH 5.5 by UPLC-MS spectrometry based PAMPA assay; type: ADME; conditions: read-out: permeability
[6] = molecular target: T2, N-formyl peptide receptor 2; test: Agonist activity at FPR2 (unknown origin) expressed in CHO cells assessed as Calcium mobilization incubated for 30 min by fluorometry method; type: functional, cell-based
fMet-Leu-Phe receptor [7] = molecular target: T3, fMet-Leu-Phe receptor; test: Agonist activity at FPR1 (unknown origin) transfected in human HL60 cells assessed as calcium mobilization incubated for 30 mins and measured for 15 mins by fluorometry method; type: functional, cell-based, HL-60
[8] = molecular target: T4, Formyl peptide receptor 2 (Mus musculus, UniProt O88536); test: Agonist activity at mouse FPR2
T4 sequence (O88536 whole entry): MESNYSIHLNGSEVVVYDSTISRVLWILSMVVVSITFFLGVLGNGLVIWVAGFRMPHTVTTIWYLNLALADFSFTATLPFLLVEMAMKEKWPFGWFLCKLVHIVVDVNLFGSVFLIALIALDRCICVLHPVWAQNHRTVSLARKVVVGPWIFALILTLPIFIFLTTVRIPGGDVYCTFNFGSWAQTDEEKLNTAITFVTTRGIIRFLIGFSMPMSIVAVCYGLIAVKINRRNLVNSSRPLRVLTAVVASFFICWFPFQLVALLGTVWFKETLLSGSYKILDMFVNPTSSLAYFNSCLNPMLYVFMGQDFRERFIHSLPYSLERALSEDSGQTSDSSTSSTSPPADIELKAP

[9] = molecular target: T2, N-formyl peptide receptor 2; test: Agonist activity at human FPR2; type: functional
fMet-Leu-Phe receptor [10] = molecular target: T1, fMet-Leu-Phe receptor; test: Agonist activity at mouse FPR1; type: functional
fMet-Leu-Phe receptor [11] = molecular target: T3, fMet-Leu-Phe receptor; test: Agonist activity at human FPR1; type: functional
[12] = molecular target: T2, N-formyl peptide receptor 2; test: Agonist activity at FPR2 (unknown origin) transfected in CHO cells assessed as increase in calcium mobilization by Fluo-4AM dye based assay; type: functional, cell-based
fMet-Leu-Phe receptor [13] = molecular target: T3, fMet-Leu-Phe receptor; test: Agonist activity at FPR1 (unknown origin) transfected in CHO cells assessed as increase in calcium mobilization by Fluo-4AM dye based assay; type: functional, cell-based
[14] = molecular target: T2, N-formyl peptide receptor 2; test: Agonist activity at human FPR2 expressed in HL-60 cells by Fluo4-AM dye based intracellular calcium flux assay; type: functional, cell-based
fMet-Leu-Phe receptor [15] = molecular target: T3, fMet-Leu-Phe receptor; test: Agonist activity against human FPR1 expressed in HL-60 cells by Fluo4-AM dye based intracellular calcium flux assay; type: functional, cell-based
[16] = Oral bioavailability in human at 1 mg/kg; type: ADME, organism-based; conditions: in vivo
[17] = molecular target: T2, N-formyl peptide receptor 2; test: Agonist activity at FPR2 (unknown origin) in HEK293 cells; type: functional, cell-based
[18] = Metabolic stability in rat liver microsomes assessed as compound remaining after 30 mins incubation; type: ADME, Microsome; conditions: read-out: Stability
[19] = Half life in rat liver microsomes measured upto 60 mins by LC-MS/MS analysis; type: ADME, Microsome; conditions: 1 h
[20] = Intrinsic clearance in rat liver microsomes; type: ADME, Microsome

Compound: COc1cc(F)c([C@@H]2CNC(=O)[C@H]2Nc2cc(-c3ccc(Cl)cc3)no2)c(F)c1
EC50 (fMet-Leu-Phe receptor [3]): 470 nM
EC50 [4]: 10 nM
Papp [5]: 110 ×10⁻⁶ cm/s

Compound: CC[C@H](C)[C@H](NC(=O)[C@@H](NC(=O)[C@H](Cc1ccccc1)NC(=O)[C@H](CC(C)C)NC(=O)[C@H](CCSC)NC=O)[C@@H](C)CC)C(=O)O (For-MLFII-OH)
EC50 [8]: 910 nM
EC50 [9]: 3.8 nM
EC50 (fMet-Leu-Phe receptor [10]): 0.03 nM
EC50 (fMet-Leu-Phe receptor [11]): 1400 nM

Compound: CC(C)C[C@H](NC(=O)CNC(=O)Nc1ccc(Br)cc1)C(=O)OC(C)(C)C
EC50 [12]: 600 nM
EC50 (fMet-Leu-Phe receptor [13]): 2300 nM

Compound: COc1cccc(Cc2cc(C)nn(CC(=S)Nc3ccccc3)c2=O)c1
EC50 [14]: > 50000 nM
EC50 (fMet-Leu-Phe receptor [15]): > 50000 nM

Compound: O=C(NCc1ccc(Br)cc1F)[C@@H]1C2CCC([C@H]1C(=O)NC1CCNCC1)C21CC1 (stereo partly drawn)
bioavailability [16]: 0.3%

Compound: O=C(NCc1ccc(Br)cc1F)[C@@H]1C2CCC([C@H]1C(=O)NC1CCNCC1F)C21CC1 (stereo partly drawn)
EC50 [17]: 2 nM
bioavailability [16]: 12%

Compound: N#Cc1ccc(C[C@@H](NC(=O)Nc2ccc(F)cc2)C(=O)NCC2(c3ccc(F)c(Cl)c3)CC2)cc1
remaining at 0.5 h [18]: 20%

Continued, values first:

Kd (fMet-Leu-Phe receptor [1]): 1.5 nM
Kd [2]: 1.7 nM
Compound: CCCCC[C@H](O)[C@H](O)/C=C/C=C/C=C\C=C\[C@@H](O)CCCC(=O)O

EC50 [6]: 1800 nM
EC50 (fMet-Leu-Phe receptor [7]): 1400 nM
Compound: Ac-AMVSEFLKQAWIENEEQEYVVQTVK-OH

EC50 (fMet-Leu-Phe receptor [3]): 2200 nM
EC50 [4]: 280 nM
Compound: O=C(Nc1ccc(Br)cc1)[C@@H]1C2CCC([C@@H]1C(=O)O)C21CC1 (stereo partly drawn)

t1/2 [19]: 48 min
CLH [20]: 15 µL/min/mg
Compound: N#Cc1ccc(C[C@H](NC(=O)Nc2ccc(F)cc2)C(=O)NCC2(c3ccc(F)c(Cl)c3)CC2)cc1
